The values below come from the CombiSolv-Exp solvation set (Vermeire and Green 2021).

The data set is described as follows: solvent given as SMILES.
Setting [1] is: in CCCCCCCC(=O)OCC(COC(=O)CCCCCCC)OC(=O)CCCCCCC.

`CCC(C)C(=O)OC1CC(C)C=C2C=CC(C)C(CCC3CC(O)CC(=O)O3)C21` (stereo not given): the “solvation free energy, 298 K” value reads like this: (in CC(=O)OC(C)C) -24.9 kcal/mol; (in CC(=O)OCC(C)C) -24.8 kcal/mol; (in CC(C)=O) -25.7 kcal/mol; (in CCC(C)=O) -25.6 kcal/mol; (in CCC(C)OC(C)=O) -24.9 kcal/mol; (in CCCCCCCCO) -24.6 kcal/mol. Also, the “solvation free energy, 298 K” value by setting is: (in CCCCCCO) -24.8 kcal/mol; (in CCCCCO) -24.9 kcal/mol; (in CCCCO) -25.2 kcal/mol; (in CCCCOC(C)=O) -24.9 kcal/mol; (in CCCO) -25.2 kcal/mol; (in CCCOC(C)=O) -25.1 kcal/mol. The “solvation free energy, 298 K” value reads like this: (in CCO) -25.1 kcal/mol; (in CCOC(C)=O) -25.1 kcal/mol; (in CO) -25.2 kcal/mol; (in COC(C)=O) -25.1 kcal/mol.

As to `CCCCCCCCCCCO`, the “solvation free energy, 298 K” value (in CCCCCCCCCCO) is -10.3 kcal/mol.

With `CCCCCOCCCCC`, the “solvation free energy, 298 K” value reads like this: (in CCCCCCCCCCCCCCCC) -6.4 kcal/mol; (in CCCCCCCCO) -6.46 kcal/mol.

`FC(F)(Cl)Cl`: the “solvation free energy, 298 K” value is, setting by setting: (in CCCCCCC) -1.8 kcal/mol; (in CCCCCCCC) -1.76 kcal/mol; under setting [1], -1.36 kcal/mol; (in CCCCCCCCC) -1.68 kcal/mol; (in CCCCCCCCO) -1.34 kcal/mol; (in ClC(Cl)(Cl)Cl) -1.92 kcal/mol.

On to `COc1ccc(C(=O)N(C)C)cc1`, for which, where the note is “in O”, the “solvation free energy, 298 K” value is -11 kcal/mol.

Turning to `Nc1ncnc2nc[nH]c12`, the “solvation free energy, 298 K” value is, setting by setting: (in C=CCCCCCCC=C) -10.2 kcal/mol; (in C=CCCCCCCCCCCCCCC) -9.84 kcal/mol; (in O) -17.4 kcal/mol.

On to `Clc1cc(Cl)c(-c2ccccc2)c(Cl)c1`, for which, where the note is “in O”, the “solvation free energy, 298 K” value is -2.16 kcal/mol.

As to `CCCCCCCCCCCCCCCCCCC`, the “solvation free energy, 298 K” value reads like this: (in CC(=O)N(C)C) -12.9 kcal/mol; (in CCCCOC(C)=O) -12.7 kcal/mol; (in CCO) -10.8 kcal/mol; (in O) 4.38 kcal/mol.

Turning to `OC1COC(O)C(O)C1O` (stereo not given), the “solvation free energy, 298 K” value (in O) is -20.5 kcal/mol.

Turning to `C=CC(C)CC` (stereo not given), the “solvation free energy, 298 K” value (in CC#N) is -2.7 kcal/mol.

Regarding `CCc1ccc2ccccc2c1`, the “solvation free energy, 298 K” value (in O) is -2.26 kcal/mol.

For `CCNc1nc(NC(C)(C)C)nc(OC)n1`, the “solvation free energy, 298 K” value (in O) was -9 kcal/mol.

As for `Cc1ccc(O)c(C)c1`, the “solvation free energy, 298 K” value is -6.51 kcal/mol (in CCCCCC), -6.48 kcal/mol (in CCCCCCC), -6.46 kcal/mol (in CCCCCCCC) and -6.02 kcal/mol (in O).

In the case of `O=C(O)c1cccc(O)c1`, the “solvation free energy, 298 K” value (in O) is -9.55 kcal/mol.

As for `CI`, the “solvation free energy, 298 K” value is -3.3 kcal/mol (in Brc1cccc2ccccc12); -3.63 kcal/mol (in CC(=O)N(C)C); -3.34 kcal/mol (in CC(=O)OCc1ccccc1); -3.56 kcal/mol (in CC(C)=O); -2.94 kcal/mol (in CC(C)CC(C)(C)C); -3.48 kcal/mol (in CCC(C)=O). Besides, the “solvation free energy, 298 K” value reads like this: (in CCCCCCC) -3.03 kcal/mol; (in CCCCCCCC) -2.99 kcal/mol; (in CCCCCCCCO) -2.95 kcal/mol; (in CCCCCl) -3.44 kcal/mol; (in CCCCO) -3.04 kcal/mol; (in CCO) -2.99 kcal/mol. In addition, the “solvation free energy, 298 K” value by setting is: (in CCOC(C)=O) -3.46 kcal/mol; (in CN1CCCC1=O) -3.77 kcal/mol; (in CN(C)C=O) -3.49 kcal/mol; (in CO) -3.21 kcal/mol; (in Cc1ccc(C)cc1) -3.47 kcal/mol; (in ClC(Cl)(Cl)Cl) -3.49 kcal/mol. In addition, the “solvation free energy, 298 K” value was -3.78 kcal/mol (in ClC(Cl)Cl); -3.62 kcal/mol (in ClCCCl); -3.83 kcal/mol (in ClCCl); -3.41 kcal/mol (in N#Cc1ccccc1); -0.89 kcal/mol (in O); -3.58 kcal/mol (in O=C1CCCCC1). Moreover, the “solvation free energy, 298 K” value (in c1ccc2ncccc2c1) is -3.4 kcal/mol.

On to `C=C(C)C1CC=C(C)C(OC(=O)CC)C1` (stereo not given), for which the “solvation free energy, 298 K” value (in O) was -3.87 kcal/mol.

As to `CC(C)N(N=O)C(C)C`, the “solvation free energy, 298 K” value (in CC(C)CC(C)(C)C) was -6.07 kcal/mol and the “solvation free energy, 298 K” value (in O) is -5.16 kcal/mol.

`Clc1ccccn1`: where the note is “in O”, the “solvation free energy, 298 K” value was -4.39 kcal/mol.

For `FC(F)(F)F`, the “solvation free energy, 298 K” value was found to be 1.57 kcal/mol (in Brc1ccccc1); 1 kcal/mol (in C1CCOC1); 1.38 kcal/mol (in C1COCCO1); 0.8 kcal/mol (in CC(C)(C)O); 0.56 kcal/mol (in CC(C)CC(C)(C)C); 1 kcal/mol (in CC(C)CO). The “solvation free energy, 298 K” value by setting is: (in CCC(C)O) 1.01 kcal/mol; (in CCCCCC) 0.49 kcal/mol; (in CCCCCCC) 0.62 kcal/mol; (in CCCCCCCC) 0.72 kcal/mol; under setting [1], 1.4 kcal/mol; (in CCCCCCCCC) 0.8 kcal/mol. For the same molecule, the “solvation free energy, 298 K” value (in CCCCCCCCCC) was found to be 0.86 kcal/mol; the “solvation free energy, 298 K” value (in CCCCCCCCCCC) is 0.92 kcal/mol; the “solvation free energy, 298 K” value (in CCCCCCCCCCCC) was 0.97 kcal/mol; the “solvation free energy, 298 K” value (in CCCCCCCCCCCCC) worked out at 1.02 kcal/mol; the “solvation free energy, 298 K” value (in CCCCCCCCCCCCCC) came to 1.06 kcal/mol; the “solvation free energy, 298 K” value (in CCCCCCCCCCCCCCC) turned out to be 1.1 kcal/mol. For the same molecule, the “solvation free energy, 298 K” value (in CCCCCCCCCCCCCCCC) amounted to 1.11 kcal/mol; the “solvation free energy, 298 K” value (in CCCCCCCCCCCO) was 1.39 kcal/mol; the “solvation free energy, 298 K” value (in CCCCCCCCCCO) amounted to 1.36 kcal/mol; the “solvation free energy, 298 K” value (in CCCCCCCCCO) was 1.32 kcal/mol; the “solvation free energy, 298 K” value (in CCCCCCCCO) turned out to be 1.27 kcal/mol; the “solvation free energy, 298 K” value (in CCCCCCCO) was determined as 1.25 kcal/mol. Also, the “solvation free energy, 298 K” value reads like this: (in CCCCCCO) 1.21 kcal/mol; (in CCCCCO) 1.16 kcal/mol; (in CCCCO) 1.1 kcal/mol; (in CCCO) 1.04 kcal/mol; (in CCO) 0.98 kcal/mol; (in CN1CCCC1=O) 1.8 kcal/mol. Besides, the “solvation free energy, 298 K” value is, setting by setting: (in CN(C)C=O) 1.56 kcal/mol; (in CO) 1 kcal/mol; (in Cc1ccc(C)cc1) 1.11 kcal/mol; (in Cc1cccc(C)c1) 1.13 kcal/mol; (in Cc1ccccc1C) 1.21 kcal/mol; (in ClC(Cl)(Cl)Cl) 0.82 kcal/mol. The “solvation free energy, 298 K” value runs as follows: (in Clc1ccccc1) 1.3 kcal/mol; (in O) 3.13 kcal/mol; (in O=C1CCCC1) 1.36 kcal/mol; (in O=C1CCCCC1) 1.41 kcal/mol.

Consider `CCC(CC)CC`, for which the “solvation free energy, 298 K” value reads like this: (in C=CCCCCCCCCCCCCCC) -4.07 kcal/mol; (in CC#N) -3.02 kcal/mol; (in O) 2.61 kcal/mol.
